Assay results as given in EP4559923A1, “ANTIHISTAMINE COMPOUND, AND PREPARATION METHOD THEREFOR AND USE THEREOF” (HC Synthetic Pharmaceutical Co., Ltd., priority 2022, dated 2024).

Key:
[1] = system: isolated ileal smooth muscle; assay: Muscle tone of isolated ileal smooth muscle of guinea pigs, compound alone; details: Table 3, no histamine, X±s, n = 8; for Smooth muscle tone (g) After administration: 5 minutes after adding the drug; for Smooth muscle tone (g) Before administration: before adding the drug; for Antispasmodic percentage (%): relative to tone before adding compound, 5 min
Procedure: (§1) The guinea pig was knocked unconscious with a wooden stick, and the abdomen was immediately dissected to separate the ileum about 15 cm in length. The contents of the intestinal segment were flushed with Tyrode's solution and placed in Tyrode's solution at a constant temperature of 37°C for later use, and oxygen was supplied simultaneously. The experimental intestinal tract (1 cm in length) was cut and placed into 20 ml of Tyrode's solution at a constant temperature of 37°C with a continuous oxygen supply. One end of the intestine was fixed on the ventilation hook and the other end was connected to the muscle tone transducer and led to the computer interface. The muscle tone value of the ileal smooth muscle was recorded with a BL system. The experiment was carried out after the intestinal segment contraction became stable.
After the ileum contraction curve stabilized, the tone values before adding the drug were recorded, then the drug or DMSO was added, and the average tone value of the ileum contraction curve at that point was recorded 5 minutes later. The operation was repeated 8 times. The antispasmodic percentage was calculated according to the following formula. Antispasmodic percentage =; (Tone value before adding subject compound−Tone value after adding subject compound)/(Tone value before adding subject compound) × 100% [formula]

histamine = assay: Muscle tone of isolated ileal smooth muscle of guinea pigs contracted with histamine; details: Table 4, x±s, n = 8; for Smooth muscle tone (g) After addition of histamine: after 0.05 mL of histamine, before compound; for Smooth muscle tone (g) Before administration: before histamine and compound; for Antispasmodic percentage (%): relative to tone after adding histamine, 3 min
Procedure: as §1
(§2) After the ileal peristalsis curve stabilized, the tone values before adding the compound were recorded, and then 0.05 mL of histamine was added. […] The operation was repeated 8 times. The antispasmodic percentage was calculated using the following equation. Antispasmodic percentage; = (Tone value after adding histamine−Tone value after adding subject compound)/(Tone value after adding histamine) × 100% [formula]

[2] = as above; details: Table 4; 3 minutes after adding 0.05 mL compound at maximum histamine contraction; x±s, n = 8
Procedure: as §1, §2

histamine-induced asthma = assay: Antiasthmatic effect on histamine-induced asthma in guinea pigs (latency period); type: in vivo; details: X±s, n = 5; for Post-administration latency period: 1 mg/kg oral gavage, sixty minutes after administration, histamine hydrochloride spray, no asthma within 8 minutes counted as 8 minutes; for Pre-administration latency period: baseline before dosing, histamine hydrochloride spray 0.8 mg/mL for 40 seconds
Procedure: The guinea pigs were placed in a polymethyl methacrylate bell jar and a histamine hydrochloride solution was sprayed ultrasonically (0.8 mg/mL) for 40 seconds. The time point at which the guinea pigs developed asthma was recorded. The time of convulsion and fall was taken as the latency period. Guinea pigs with a latency period exceeding 180 seconds were not selected. […] The guinea pigs were administered by oral gavage at a dose of 2 mL/kg·bw. Sixty minutes after the administration, the guinea pigs were placed in bell jars, and histamine hydrochloride solution was sprayed under the same conditions as in the previous selection. The latency period for the onset of asthma was recorded. […] The results were processed statistically.

Structure (SMILES)	Smooth muscle tone (g) After administration [1]	Smooth muscle tone (g) Before administration [1]	Antispasmodic percentage (%) [1]	Smooth muscle tone (g) After addition of histamine (histamine)	Smooth muscle tone (g) Before administration (histamine)	Antispasmodic percentage (%) (histamine)	Smooth muscle tone (g) After administration [2]	Post-administration latency period (histamine-induced asthma)	Pre-administration latency period (histamine-induced asthma)
O=P(O)(O)OCN1CCC(=C2c3ccc(Cl)cc3CCc3cccnc32)CC1 [Compound III-1]	1.10 ± 0.22 g	1.74 ± 0.19 g	36.78±18.11%	3.44 ± 1.10 g	1.81 ± 0.19 g	67.44±15.23%	1.12 ± 0.25 g	388.39 ± 53.23 s	99.34 ± 49.57 s
O=P(O)(O)OCN1CCC(=C2c3ccc(F)cc3CCc3cccnc32)CC1 [Compound III-2]	1.15 ± 0.20 g	1.72 ± 0.23 g	33.14±15.19%	3.40 ± 0.99 g	1.75 ± 0.16 g	67.65±17.99%	1.10 ± 0.19 g	367.77 ± 50.21 s	98.81 ± 50.32 s
O=P(O)(O)OCN1CCC(=C2c3ccc(Br)cc3CCc3cccnc32)CC1 [Compound III-3]	–	–	29.82±18.20%	3.50 ± 1.19 g	–	66.28±16.30%	–	–	–
O=P(O)(O)OCCN1CCC(=C2c3ccc(Cl)cc3CCc3cccnc32)CC1 [Compound III-4]	1.17 ± 0.21 g	1.70 ± 0.20 g	31.17±20.11%	3.48 ± 0.98 g	1.75 ± 0.18 g	65.23±19.91%	1.21 ± 0.20 g	366.40 ± 50.23 s	97.99 ± 50.18 s
O=P(O)(O)OCCN1CCC(=C2c3ccc(F)cc3CCc3cccnc32)CC1 [Compound III-5]	1.18 ± 0.22 g	1.73 ± 0.21 g	31.79±16.94%	3.40 ± 0.83 g	1.79 ± 0.20 g	65.58±20.01%	1.17 ± 0.23 g	371.19 ± 44.59 s	100.10 ± 43.29 s
O=P(O)(O)OCCN1CCC(=C2c3ccc(Br)cc3CCc3cccnc32)CC1 [Compound III-6]	1.16 ± 0.27 g	1.72 ± 0.20 g	32.56±17.27%	3.47 ± 0.90 g	1.83 ± 0.18 g	65.42±17.83%	1.20 ± 0.20 g	373.29 ± 50.22 s	95.26 ± 48.88 s
O=P(O)(O)OCCCN1CCC(=C2c3ccc(F)cc3CCc3cccnc32)CC1 [Compound III-8]	1.14 ± 0.23 g	–	33.72±19.01%	–	–	66.47±18.83%	1.16 ± 0.25 g	–	–
O=P(O)(O)OCCCN1CCC(=C2c3ccc(Br)cc3CCc3cccnc32)CC1 [Compound III-9]	1.18 ± 0.25 g	–	30.59±20.02%	–	–	67.33±19.34%	1.14 ± 0.26 g	362.84 ± 53.77 s	–
O=P(O)(O)OCCCCN1CCC(=C2c3ccc(F)cc3CCc3cccnc32)CC1 [Compound III-11]	1.17 ± 0.22 g	–	–	–	–	66.37±17.33%	1.16 ± 0.20 g	373.33 ± 50.81 s	–
O=P(O)(O)OCCCCN1CCC(=C2c3ccc(Br)cc3CCc3cccnc32)CC1 [Compound III-12]	1.25 ± 0.21 g	1.74 ± 0.23 g	28.16±21.10%	3.45 ± 0.94 g	1.82 ± 0.21 g	64.92±17.49%	1.21 ± 0.23 g	359.80 ± 51.47 s	99.91 ± 49.45 s
O=P(O)(O)OCCCCCN1CCC(=C2c3ccc(Br)cc3CCc3cccnc32)CC1 [Compound III-15]	1.13 ± 0.20 g	1.74 ± 0.22 g	35.05±18.37%	3.40 ± 0.89 g	1.80 ± 0.20 g	65.59±18.88%	1.17 ± 0.23 g	359.61 ± 50.22 s	99.11 ± 51.09 s
O=P(O)(O)OCOCCN1CCC(=C2c3ccc(Cl)cc3CCc3cccnc32)CC1 [Compound III-16]	1.15 ± 0.24 g	1.72 ± 0.20 g	33.14±18.54%	3.42 ± 0.92 g	1.83 ± 0.21 g	65.49±19.23%	1.18 ± 0.25 g	363.23 ± 50.55 s	95.92 ± 50.22 s
O=P(O)(O)OCOCCCN1CCC(=C2c3ccc(Cl)cc3CCc3cccnc32)CC1 [Compound III-17]	1.14 ± 0.28 g	1.71 ± 0.23 g	33.33±19.10%	3.41 ± 0.84 g	1.83 ± 0.25 g	65.10±19.10%	1.19 ± 0.29 g	360.28 ± 51.00 s	96.93 ± 53.19 s
O=P(O)(O)OCOCCCCCN1CCC(=C2c3ccc(Cl)cc3CCc3cccnc32)CC1 [Compound III-19]	1.15 ± 0.24 g	1.72 ± 0.25 g	33.13±19.91%	3.43 ± 0.94 g	1.82 ± 0.21 g	65.59±18.97%	1.18 ± 0.28 g	355.71 ± 50.33 s	98.46 ± 52.04 s
O=P(O)(O)OCN1CCC(=C2c3ccc(Cl)cc3CCc3cccnc32)CC1 [Compound IV-1]	1.18 ± 0.21 g	–	30.99±19.20%	–	–	65.12±19.01%	1.20 ± 0.23 g	362.39 ± 48.40 s	–
O=P(O)(O)OCOCCCCN1CCC(=C2c3ccc(Cl)cc3CCc3cccnc32)CC1 [Compound IV-10]	1.19 ± 0.24 g	–	30.41±20.04%	–	–	65.31±19.57%	1.20 ± 0.27 g	365.28 ± 52.09 s	–
